# In patent US20230116760A1, “STRUCTURALLY-STABILIZED ONCOLYTIC PEPTIDES AND USES THEREOF” (Dana-Farber Cancer Institute, Inc., priority 2019, published 2023):
# Bridge positions count the residues as written; N and C are the ends. Square brackets hold non-standard residues; d marks the D form. Peptide text beside a SMILES is read from it. S5 = C=CCCC[C@](C)(N)C(=O)O; Nle = CCCC[C@H](N)C(=O)O
# Experiments:
# [1] = mice; Mourtada et al., Nature Biotech, 2019; cited from earlier work
# [2] = system: leukemia cells (e.g. U937, OCI-AML3 and MV4;11 cells); assay type: cell-based; details: 24 h
# Description: (§1) LDH release assay: To assess the release of lactate dehydrogenase (LDH) upon treatment with a structurally-stabilized peptide described herein, an LDH release assay can be used. Cultured cells, including, e.g., cancer cells and HUVEC cells, are plated in 96-well format (2×10^4 cells per well; including overnight incubation for adherent cells) and then treated with serial dilutions of structurally-stabilized peptides in a final volume in a final volume of 100 μL and incubated at 37° C. for the indicated time period (e.g., 90 minutes). The plates are spun down at 1500 rpm for 5 minutes at 4° C., and 80 μL of cell culture media is transferred to a clear plate (Corning), incubated with 80 μL of LDH reagent (Roche) for 15 minutes while shaking, and absorbance is measured at 490 nm on a microplate reader (SpectraMax M5 Microplate Reader, Molecular Devices). LDH release assays, as tailored to specific cancer cell types (OCI-AML3 cells and primary human pediatric B-ALL cells), are exemplified below.
# LDH release assay: Cultured cells, including cancer cells and HUVEC cells, were plated in 96-well format (2×10^4 cells per well; including overnight incubation for adherent cells) and then treated with serial dilutions of Mag(i+4) peptides in a final volume in a final volume of […] and incubated at 37° C. for the indicated time period. […]
# red blood cells (RBCs) = assay type: cell-based, human
# Description: RBC hemolysis assay: To assess the hemolytic activity of a structurally-stabilized peptide described herein, a red blood cell (RBV) hemolysis assay can be used. Human blood samples are centrifuged to isolate RBCs, which are then washed and suspended in phosphate-buffered saline to yield a 1% (v/v) suspension. The suspension is added to serial dilutions of peptide stocks in water in clear round-bottom polypropylene 96-well plates and the plates incubated for 1 hour at 37° C. The plates are then centrifuged and the supernatant isolated to determine the amount of hemoglobin released using a spectrophotometer (570 nm). Percent hemolysis is calculated as: ([Treated Absorbance−Untreated Control Absorbance]×100)/(1% Triton X-100 Treated Absorbance−Untreated Control Absorbance).
# Stapled oncolytic peptide synthesis: Fmoc-based solid-phase peptide synthesis was used to synthesize stapled antimicrobial peptides in accordance with previously reported methods for generating all-hydrocarbon stapled peptides. To achieve the various staple lengths, α-methyl, α-alkenyl amino acids were installed at i, i+4 positions using two S-pentenyl alanine residues (S5). For the stapling reaction, Grubbs 1st generation ruthenium catalyst dissolved in dichloroethane was added to the resin-bound peptides. To ensure maximal conversion, three to five rounds of stapling were performed. The peptides were then cleaved off of the resin using trifluoroacetic acid, precipitated using a hexane:ether (1:1) mixture, air dried, and purified by LC-MS. All peptides were quantified by amino acid analysis. RBC hemolysis assay: Human blood samples were centrifuged to isolate red blood cells (RBCs), which were then washed and suspended in phosphate-buffered saline to yield a 1% (v/v) suspension. The suspension was added to serial dilutions of peptide stocks in water in clear round-bottom polypropylene 96-well plates and the plates incubated for 1 hour at 37° C. The plates were then centrifuged and the supernatant isolated to determine the amount of hemoglobin released using a spectrophotometer (570 nm). Percent hemolysis was calculated as: ([Treated Absorbance−Untreated Control Absorbance]×100)/(1% Triton X-100 Treated Absorbance−Untreated Control Absorbance).
# OCI-AML3 cells = assay: LDH release assay of OCI-AML3 cells; assay type: cell-based, human; details: 10 and 25 μg/mL, 90 minutes, FIG. 6, FIG. 7
# Description: as §1
# (§2) LDH release assay of OCI-AML3 cells: OCI-AML3 cells are seeded in 96-well plates (2×10^4 cells per well) in RPMI medium containing 5% FBS and treated with structurally-stabilized peptides for 90 minutes. LDH release is quantified by incubating centrifuged (e.g., at 1500 rpm) cell culture medium 1:1 with LDH reagent (Roche), followed by absorbance measurement 490 nm on a microplate reader (Spectramax M5). Percent LDH release was normalized to 1% Triton.
# (§3) LDH release assay: Cultured cells, including cancer cells and HUVEC cells, were plated in 96-well format (2×10^4 cells per well; including overnight incubation for adherent cells) and then treated with serial dilutions of Mag(i+4) peptides in a final volume in a final volume of […] and incubated at 37° C. for the indicated time period. The plates were spun down at 1500 rpm for 5 min at 4° C., and 80 μL of cell culture media was transferred to a clear plate (Corning), incubated with 80 μL of LDH reagent (Roche) for 15 min while shaking, and absorbance measured at 490 nm on a microplate reader (SpectraMax M5 Microplate Reader, Molecular Devices). LDH release assays, as tailored to specific cancer cell types, are exemplified below.
# as §2, with “were” for “are”, “with” for “with structurally-stabilized”, “peptides having the indicated amino acid sequences” for “peptides”, “was” for “is”, “centrifuged” for “centrifuged (e.g., at 1500 rpm)”, “Triton. Data was pooled from 2 technical replicates.” for “Triton.”
# U937 cells = assay: LDH release assay of U937 cells; assay type: cell-based; details: 10 and 25 μg/mL, 90 minutes, FIG. 6, FIG. 7
# Description: as §1, §3
# S. aureus = assay: killing of S. aureus; assay type: cell-based; details: vs Mag(i+4)15
# B. cereus = assay: killing of B. cereus; assay type: cell-based; details: vs Mag(i+4)15
Molecule,RBC lysis (red blood cells (RBCs)),"cancer cell lysis by LDH release, compared with parent Mag(i+4)15 (OCI-AML3 cells)","cancer cell lysis by LDH release, compared with parent Mag(i+4)15 (U937 cells)",killing of S. aureus compared to the parent compound (S. aureus),killing of B. cereus compared to the parent compound (B. cereus),further results
"CC(C)[C@@H]1NC(=O)[C@@](C)(NC(=O)[C@H](C)NC(=O)[C@H](CCCCN)NC(=O)CNC(=O)[C@H](Cc2ccccc2)NC(=O)[C@H](CCCCN)NC(=O)[C@H](CCCCN)NC(=O)[C@H](CCCCN)NC(=O)[C@H](CO)NC(=O)[C@H](Cc2c[nH]cn2)NC(=O)[C@]2(C)CCCC=CCCC[C@](C)(NC(=O)CN)C(=O)NCC(=O)N[C@@H](CCCCN)C(=O)N[C@@H](Cc3ccccc3)C(=O)N2)CCCC=CCCC[C@@](C)(C(=O)N[C@@H](C)C(=O)N[C@@H](CCCCN)C(=O)N[C@@H](CCCCN)C(N)=O)NC(=O)[C@H](CCC(=O)O)NC(=O)CNC1=O [Mag(i+4)1,15 (A9K, B21A, N22K, S23K), GX1GKFX2HSKKKFGKAX3VGEX4AKK] (H-G[S5]GKF[S5]HSKKKFGKA[S5]VGE[S5]AKK-NH2; staple 2-6, 16-20)",–,–,–,–,–,"toxicity (gross toxicity, red cell hemolysis, kidney epithelium) [1]: without gross toxicity, red cell hemolysis or damage to kidney epithelium; EC50 of leukemia cell lysis (LDH release) [2]: 11.5 to 28.2 µg/mL"
"CCCC[C@H](NC(=O)[C@@H](NC(=O)[C@H](CCC(=O)O)NC(=O)CNC(=O)[C@@H](NC(=O)[C@H](Cc1ccccc1)NC(=O)[C@H](C)NC(=O)[C@H](CCCCN)NC(=O)CNC(=O)[C@H](Cc1ccccc1)NC(=O)[C@]1(C)CCCC=CCCC[C@](C)(NC(=O)[C@H](CC(C)C)NC(=O)[C@H](Cc2ccccc2)NC(=O)[C@H](CCCCN)NC(=O)CNC(=O)[C@@H](NC(=O)CN)[C@@H](C)CC)C(=O)N[C@@H](CO)C(=O)N[C@@H](C)C(=O)N[C@@H](CCCCN)C(=O)N1)C(C)C)[C@@H](C)CC)C(=O)N[C@@H](CC(N)=O)C(=O)N[C@@H](CO)C(N)=O [Mag(i+4)6, GIGKFLX1SAKX2FGKAFVGEIBNS] (H-GIGKFL[S5]SAK[S5]FGKAFVGEI[Nle]NS-NH2; staple 7-11)",no effect on any cell type,–,–,–,–,–
"CCCC[C@@H]1NC(=O)[C@H]([C@@H](C)CC)NC(=O)[C@@](C)(NC(=O)CNC(=O)[C@@H](NC(=O)[C@H](Cc2ccccc2)NC(=O)[C@H](C)NC(=O)[C@H](CCCCN)NC(=O)CNC(=O)[C@H](Cc2ccccc2)NC(=O)[C@H](CCCCN)NC(=O)[C@H](CCCCN)NC(=O)[C@H](C)NC(=O)[C@H](CO)NC(=O)[C@H](Cc2c[nH]cn2)NC(=O)[C@H](CC(C)C)NC(=O)[C@H](Cc2ccccc2)NC(=O)[C@H](CCCCN)NC(=O)CNC(=O)[C@@H](NC(=O)CN)[C@@H](C)CC)C(C)C)CCCC=CCCC[C@@](C)(C(N)=O)NC(=O)[C@H](CC(N)=O)NC1=O [Mag(i+4)18, GIGKFLHSAKKFGKAFVGX1IBNX2] (H-GIGKFLHSAKKFGKAFVG[S5]I[Nle]N[S5]-NH2; staple 19-23)",lytic to all three cell types,–,–,–,–,–
GKGKFLHSAKKFGKAX1VGEX2BNS [Mag(i+4)15 (I2K)],–,"retain substantial, if not all, oncolytic activity","retain substantial, if not all, oncolytic activity",substantially impaired,substantially impaired,–
KIGKFLHSAKKFGKAX1VGEX2BNS [Mag(i+4)15 (G1K)],–,"retain substantial, if not all, oncolytic activity","retain substantial, if not all, oncolytic activity",substantially impaired,substantially impaired,–
